The NIST ThermoML archive (doi:10.1016/j.jct.2005.03.020)

Experiments:
[1] = 298.15 K; 101.33 kPa; Liquid
[2] = refractive index (Na D-line) (dimensionless); settings: 298.15 K; 101.33 kPa; Liquid; Standard Abbe refractometry
[3] = excess molar enthalpy (molar enthalpy of mixing); xn = mol fraction of the nth substance listed; settings: 298.15 K, 101.33 kPa, Liquid
[4] = xn = mol fraction of the nth substance listed; settings: 298.15 K, 101.33 kPa, Liquid

ClCCCl [1,2-dichloroethane]
Settings	mass density [kg/m3]	refractive index
[1]	1245.65	–
[2]	–	1.442

ClCCCCl [1,3-dichloropropane]
Settings	mass density [kg/m3]	refractive index
[1]	1178.34	–
[2]	–	1.4455

ClCCCCCl [1,4-dichlorobutane]
Settings	mass density [kg/m3]	refractive index
[1]	1133.32	–
[2]	–	1.452

ClCCCCCCl [1,5-dichloropentane]
Settings	mass density [kg/m3]	refractive index
[1]	1095.27	–
[2]	–	1.454

ClCCCCCCCl [1,6-dichlorohexane]
Settings	mass density [kg/m3]	refractive index
[1]	1063.72	–
[2]	–	1.4555

ClCCCCCCCl [1,6-dichlorohexane] + CCOC(C)=O
Settings	excess molar enthalpy [kJ/mol]	mass density [kg/m3]
[3], x2 = 0.0931	0.0324	–
[3], x2 = 0.1859	0.053	–
[3], x2 = 0.2737	0.073	–
[3], x2 = 0.3572	0.0826	–
[3], x2 = 0.4323	0.0759	–
[3], x2 = 0.4967	0.0625	–
[3], x2 = 0.5544	0.0421	–
[3], x2 = 0.6025	0.0316	–
[3], x2 = 0.6355	0.0226	–
[3], x2 = 0.7013	0.0133	–
[3], x2 = 0.769	0.0044	–
[3], x2 = 0.8355	-0.0095	–
[3], x2 = 0.9006	-0.0152	–
[3], x2 = 0.9593	-0.0068	–
[4], x2 = 0.0827	–	1053.91
[4], x2 = 0.164	–	1043.7
[4], x2 = 0.2386	–	1033.83
[4], x2 = 0.3112	–	1023.72
[4], x2 = 0.3783	–	1013.89
[4], x2 = 0.4437	–	1003.86
[4], x2 = 0.5071	–	993.65
[4], x2 = 0.5654	–	983.86
[4], x2 = 0.6221	–	973.92
[4], x2 = 0.6754	–	964.14
[4], x2 = 0.7291	–	953.86
[4], x2 = 0.7774	–	944.24
[4], x2 = 0.824	–	934.61
[4], x2 = 0.8726	–	924.1
[4], x2 = 0.9134	–	914.94
[4], x2 = 0.9552	–	905.22

CCOC(C)=O [ethyl acetate]
Settings	mass density [kg/m3]	refractive index
[1]	894.33	–
[2]	–	1.3692

CCCC(=O)OCC [ethyl butanoate]
Settings	mass density [kg/m3]	refractive index
[1]	873.54	–
[2]	–	1.3895

CCCC(=O)OCC [ethyl butanoate] + ClCCCl
Settings	excess molar enthalpy [kJ/mol]	mass density [kg/m3]
[3], x1 = 0.0372	-0.024	–
[3], x1 = 0.0865	-0.0668	–
[3], x1 = 0.1386	-0.122	–
[3], x1 = 0.1921	-0.182	–
[3], x1 = 0.2431	-0.246	–
[3], x1 = 0.2939	-0.308	–
[3], x1 = 0.3419	-0.361	–
[3], x1 = 0.388	-0.409	–
[3], x1 = 0.4274	-0.441	–
[3], x1 = 0.4838	-0.456	–
[3], x1 = 0.5489	-0.459	–
[3], x1 = 0.5825	-0.451	–
[3], x1 = 0.6236	-0.435	–
[3], x1 = 0.7068	-0.379	–
[3], x1 = 0.7989	-0.285	–
[3], x1 = 0.8971	-0.17	–
[3], x1 = 0.9325	-0.122	–
[4], x1 = 0.0378	–	1221.95
[4], x1 = 0.075	–	1199.86
[4], x1 = 0.1149	–	1177.55
[4], x1 = 0.1568	–	1155.49
[4], x1 = 0.198	–	1134.78
[4], x1 = 0.2425	–	1113.63
[4], x1 = 0.2957	–	1089.91
[4], x1 = 0.3476	–	1068.19
[4], x1 = 0.4019	–	1046.72
[4], x1 = 0.46	–	1025.2
[4], x1 = 0.5234	–	1003.08
[4], x1 = 0.5887	–	981.85
[4], x1 = 0.6583	–	960.62
[4], x1 = 0.7338	–	939.07
[4], x1 = 0.8138	–	917.85
[4], x1 = 0.9027	–	895.87

CCOC=O [ethyl methanoate]
Settings	mass density [kg/m3]	refractive index
[1]	914.17	–
[2]	–	1.358

CCCCC(=O)OCC [ethyl pentanoate]
Settings	mass density [kg/m3]	refractive index
[1]	869.42	–
[2]	–	1.398
